Target: T1, human PDE2A1 (Homo sapiens, UniProt O00408)
T1 construct: GST; purchased BPS Bioscience (San Diego, Calif.) 60020; host or cells: insect cells
Experiment: IMAP FP PDE selectivity panel, human PDE2A1
Assay type: biochemical
Details: Lab B; read-out: Human PDE2 Ki (nM) Lab B
Method: Selectivity for PDE2, as compared to other PDE families, was assessed using the IMAP® technology. Human PDE10A2 enzyme was prepared from cytosolic fractions of transiently transfected HEK cells.
Assays for PDE 1 through 11 were performed in parallel at room temperature in 384-well microtiter plates with an incubation volume of 20.2 μL. Solutions of test compounds were prepared in DMSO and serially diluted with DMSO to yield 30 μL of each of ten solutions differing by 3-fold in concentration, at 32 serial dilutions per plate. […] A Labcyte POD 810 (Labcyte, Sunnyvale, Calif.) was used to dispense 200 nL from each well of the titration plate to make eleven copies of the assay plate for each titration, one copy for each PDE enzyme. A solution of each enzyme (dilution from aliquots, sufficient to produce 20% substrate conversion) and a separate solution of FAM-labeled cAMP or FAM-labeled cGMP from Molecular Devices (Sunnyvale, Calif., product # R7506 or cGMP#R7508), at a final concentration of 50 nM were made in the assay buffer (10 mM Tris HCl, pH 7.2, 10 mM MgCl2, 0.05% NaN3 0.01% Tween-20, and 1 mM DTT). Note that the substrate for PDE2 is 50 nM FAM cAMP containing 1000 nM of cGMP. The enzyme and the substrate were then added to the assay plates in two consecutive additions of 10 μL and then shaken to mix. The reaction was allowed to proceed at room temperature for 60 minutes. A binding solution was then made from the kit components, comprised of 80% Solution A, 20% Solution B and binding reagent at a volume of 1/600 the total binding solution. The enzymatic reaction was stopped by addition of 60 μL of the binding solution to each well of the assay plate. The plates were sealed and shaken for 10 seconds. The plates were incubated at room temperature for one hour, then the parallel and perpendicular fluorescence was measured using a Tecan Genios Pro plate reader (Tecan, Switzerland). […] The intrinsic PDE2 inhibitory activity of a compound which may be used in accordance with the present invention may be determined by these assays.

T1 sequence (O00408 1-920 isoform O00408-2): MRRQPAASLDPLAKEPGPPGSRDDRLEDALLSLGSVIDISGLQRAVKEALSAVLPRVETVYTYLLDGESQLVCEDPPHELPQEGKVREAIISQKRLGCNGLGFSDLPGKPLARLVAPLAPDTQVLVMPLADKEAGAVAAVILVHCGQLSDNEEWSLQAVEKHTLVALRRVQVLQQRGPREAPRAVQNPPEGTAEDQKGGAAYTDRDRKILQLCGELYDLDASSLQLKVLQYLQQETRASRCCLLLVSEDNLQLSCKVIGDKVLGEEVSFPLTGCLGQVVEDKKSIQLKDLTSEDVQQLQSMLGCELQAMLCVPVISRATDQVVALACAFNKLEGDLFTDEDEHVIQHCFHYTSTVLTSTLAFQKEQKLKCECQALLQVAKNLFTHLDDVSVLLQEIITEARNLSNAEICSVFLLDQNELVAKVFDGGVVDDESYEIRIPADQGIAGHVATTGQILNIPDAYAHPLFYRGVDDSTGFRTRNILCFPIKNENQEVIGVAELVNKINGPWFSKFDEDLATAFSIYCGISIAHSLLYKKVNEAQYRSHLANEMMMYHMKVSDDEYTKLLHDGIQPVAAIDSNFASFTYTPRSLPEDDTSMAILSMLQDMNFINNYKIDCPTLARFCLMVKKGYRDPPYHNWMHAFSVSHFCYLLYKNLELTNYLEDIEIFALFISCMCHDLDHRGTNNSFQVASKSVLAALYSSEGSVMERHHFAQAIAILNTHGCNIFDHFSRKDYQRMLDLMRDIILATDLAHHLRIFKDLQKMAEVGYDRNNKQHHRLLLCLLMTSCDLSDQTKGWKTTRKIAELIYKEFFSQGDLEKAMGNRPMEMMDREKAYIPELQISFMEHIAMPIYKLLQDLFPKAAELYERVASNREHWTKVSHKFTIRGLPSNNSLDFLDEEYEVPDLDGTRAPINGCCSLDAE

Point of comparison: `CC(C)(O)C(Nc1cc(C(F)(F)F)nc2ncnn12)c1ccc(C(F)(F)F)cc1F` (single isomer, unassigned) [Example 174, (1R or S)-1-[2-Fluoro-4-(trifluoromethyl)phenyl]-2-methyl-1-{[5-(trifluoromethyl) [1,2,4]triazolo [1,5-a]pyrimidin-7-yl]amino} propan-2-ol], Ki 29 nM. Against it:
- CC(C)(O)C(Nc1cc(C(F)(F)F)nc2ncnn12)c1ccc(C(F)F)cc1 (single isomer, unassigned) [Example 163, (1S or R)-1-[4-(Difluoromethyl)phenyl]-2-methyl-1-{[5-(trifluoromethyl) [1,2,4]triazolo [1,5-a]pyrimidin-7-yl]amino} propan-2-ol] — 2.7-fold higher, 77 nM
- CC(C)(O)C(Nc1cc(C(F)(F)F)nc2ncnn12)c1ccc(C(F)F)cc1 (single isomer, unassigned) [Example 164, (1R or S)-1-[4-(Difluoromethyl)phenyl]-2-methyl-1-{[5-(trifluoromethyl) [1,2,4]triazolo [1,5-a]pyrimidin-7-yl]amino} propan-2-ol] — higher, > 2960 nM
- CC(C)(O)C(Nc1cc(C(F)(F)F)nc2ncnn12)c1ccc(OC(F)F)cc1 (single isomer, unassigned) [Example 165, (1S or R)-1-[4-(Difluoromethoxy)phenyl]-2-methyl-1-{[5-(trifluoromethyl) [1,2,4]triazolo [1,5-a]pyrimidin-7-yl]amino} propan-2-ol] — 1.8-fold higher, 52 nM
- CC(C)(O)C(Nc1cc(C(F)(F)F)nc2ncnn12)c1ccc(OC(F)F)cc1 (single isomer, unassigned) [Example 166, (1R or S)-1-[4-(Difluoromethoxy)phenyl]-2-methyl-1-{[5-(trifluoromethyl) [1,2,4]triazolo [1,5-a]pyrimidin-7-yl]amino} propan-2-ol] — 76-fold higher, ~2190 nM
- CC(C)(O)C(Nc1cc(C(F)(F)F)nc2ncnn12)c1ccc2c(c1)OC(F)(F)O2 (single isomer, unassigned) [Example 167, (1S or R)-1-(2,2-Difluoro-1,3-benzodioxol-5-yl)-2-methyl-1-{[5-(trifluoromethyl) [1,2,4]triazolo [1,5-a]pyrimidin-7-yl]amino} propan-2-ol] — 6.3-fold higher, 184 nM
- CC(C)(O)C(Nc1cc(C(F)(F)F)nc2ncnn12)c1ccc2c(c1)OC(F)(F)O2 (single isomer, unassigned) [Example 168, (1R or S)-1-(2,2-Difluoro-1,3-benzodioxol-5-yl)-2-methyl-1-{[5-(trifluoromethyl) [1,2,4]triazolo [1,5-a]pyrimidin-7-yl]amino} propan-2-ol] — higher, > 2960 nM
- CC(C)(O)C(Nc1cc(C(F)(F)F)nc2ncnn12)c1ccc(CC(F)(F)F)cc1 (single isomer, unassigned) [Example 169, (1S or R)-2-Methyl-1-[4-(2,2,2-trifluoroethyl)phenyl]-1-{[5-(trifluoromethyl) [1,2,4]triazolo [1,5-a]pyrimidin-7-yl]amino} propan-2-ol] — 1.7-fold higher, 50 nM
- CC(C)(O)C(Nc1cc(C(F)(F)F)nc2ncnn12)c1ccc(CC(F)(F)F)cc1 (single isomer, unassigned) [Example 170, (1R or S)-2-Methyl-1-[4-(2,2,2-trifluoroethyl)phenyl]-1-{[5-(trifluoromethyl) [1,2,4]triazolo [1,5-a]pyrimidin-7-yl]amino} propan-2-ol] — higher, > 2960 nM
- CC(C)(O)C(Nc1cc(C(F)(F)F)nc2ncnn12)c1ccc(OC(F)(F)F)cc1F (single isomer, unassigned) [Example 171, (1S or R)-1-[2-Fluoro-4-(trifluoromethoxy)phenyl]-2-methyl-1-{[5-(trifluoromethyl) [1,2,4]triazolo [1,5-a]pyrimidin-7-yl]amino} propan-2-ol] — 54-fold higher, ~1560 nM
- CC(C)(O)C(Nc1cc(C(F)(F)F)nc2ncnn12)c1ccc(OC(F)(F)F)cc1F (single isomer, unassigned) [Example 172, (1R or S)-1-[2-Fluoro-4-(trifluoromethoxy)phenyl]-2-methyl-1-{[5-(trifluoromethyl) [1,2,4]triazolo [1,5-a]pyrimidin-7-yl]amino} propan-2-ol] — within 1.5-fold, 25 nM
- CC(C)(O)C(Nc1cc(C(F)(F)F)nc2ncnn12)c1ccc(C(F)(F)F)cc1F (single isomer, unassigned) [Example 173, (1S or R)-1-[2-Fluoro-4-(trifluoromethyl)phenyl]-2-methyl-1-{[5-(trifluoromethyl) [1,2,4]triazolo [1,5-a]pyrimidin-7-yl]amino} propan-2-ol] — higher, > 2960 nM
- CC(C)(O)C(Nc1cc(C(F)(F)F)nc2ncnn12)c1ccc(OC(F)(F)F)c(F)c1 (single isomer, unassigned) [Example 175, (1S or R)-1-[3-Fluoro-4-(trifluoromethoxy)phenyl]-2-methyl-1-{[5-(trifluoromethyl) [1,2,4]triazolo [1,5-a]pyrimidin-7-yl]amino} propan-2-ol] — 2.1-fold lower, 14 nM
- CC(C)(O)C(Nc1cc(C(F)(F)F)nc2ncnn12)c1ccc(OC(F)(F)F)c(F)c1 (single isomer, unassigned) [Example 176, (1R or S)-1-[3-Fluoro-4-(trifluoromethoxy)phenyl]-2-methyl-1-{[5-(trifluoromethyl) [1,2,4]triazolo [1,5-a]pyrimidin-7-yl]amino} propan-2-ol] — 45-fold higher, ~1310 nM
- CC(C)(O)[C@@H](Nc1cc(C(F)(F)F)nc2ncnn12)c1ccc(S(F)(F)(F)(F)F)cc1 (single isomer, unassigned) [Example 177] — 3.5-fold lower, 8.4 nM
- CC(C)(O)[C@H](Nc1cc(C(F)(F)F)nc2ncnn12)c1ccc(S(F)(F)(F)(F)F)cc1 (single isomer, unassigned) [Example 178] — 15-fold higher, 421 nM
- CC1(c2ccc(C(Nc3cc(C(F)(F)F)nc4ncnn34)C(C)(C)O)cc2)CC1 (single isomer, unassigned) [Example 179, (1S or R)-2-Methyl-1-[4-(1-methylcyclopropyl)phenyl]-1-{[5-(trifluoromethyl) [1,2,4]triazolo [1,5-a]pyrimidin-7-yl]amino} propan-2-ol] — higher, > 2960 nM
- CC1(c2ccc(C(Nc3cc(C(F)(F)F)nc4ncnn34)C(C)(C)O)cc2)CC1 (single isomer, unassigned) [Example 180, (1R or S)-2-Methyl-1-[4-(1-methylcyclopropyl)phenyl]-1-{[5-(trifluoromethyl) [1,2,4]triazolo [1,5-a]pyrimidin-7-yl]amino} propan-2-ol] — 2.4-fold lower, 12 nM
- CC(C)(O)C(Nc1cc(C(F)F)nc2ncnn12)c1ccc(OC(F)F)cc1F (single isomer, unassigned) [Example 181] — within 1.5-fold, 32 nM
- CC(C)(O)C(Nc1cc(C(F)F)nc2ncnn12)c1ccc(OC(F)F)cc1F (single isomer, unassigned) [Example 182] — higher, > 2960 nM
- CC(C)(O)C(Nc1cc(C(F)F)nc2ncnn12)c1ccc(OC(F)F)cc1Cl (single isomer, unassigned) [Example 183, (1S or R)-[2-Chloro-4-(difluoromethoxy)phenyl]-1-{[5-(difluoromethyl) [1,2,4]triazolo [1,5-a]pyrimidin-7-yl]amino}-2-methylpropan-2-ol] — 1.9-fold lower, 15 nM
- CC(C)(O)C(Nc1cc(C(F)F)nc2ncnn12)c1ccc(OC(F)F)cc1Cl (single isomer, unassigned) [Example 184, (1R or S)-[2-Chloro-4-(difluoromethoxy)phenyl]-1-{[5-(difluoromethyl) [1,2,4]triazolo [1,5-a]pyrimidin-7-yl]amino}-2-methylpropan-2-ol] — 2.3-fold higher, 68 nM
- CC(C)(O)C(Nc1cc(C(F)F)nc2ncnn12)c1ccc(OC(F)(F)F)cc1F (single isomer, unassigned) [Example 185, (1S or R)-{[5-(Difluoromethyl) [1,2,4]triazolo [1,5-a]pyrimidin-7-yl]amino}-1-[2-fluoro-4-(trifluoromethoxy)phenyl]-2-methylpropan-2-ol] — 2.9-fold lower, 10 nM
- CC(C)(O)C(Nc1cc(C(F)F)nc2ncnn12)c1ccc(OC(F)(F)F)cc1F (single isomer, unassigned) [Example 186, (1R or S)-{[5-(Difluoromethyl) [1,2,4]triazolo [1,5-a]pyrimidin-7-yl]amino}-1-[2-fluoro-4-(trifluoromethoxy)phenyl]-2-methylpropan-2-ol] — 66-fold higher, 1900 nM
- CC(C)(O)C(Nc1cc(C(F)F)nc2ncnn12)c1ccc(OC(F)(F)F)c(F)c1 (single isomer, unassigned) [Example 187, (1S or R)-{[5-(Difluoromethyl) [1,2,4]triazolo [1,5-a]pyrimidin-7-yl]amino}-1-[3-fluoro-4-(trifluoromethoxy)phenyl]-2-methylpropan-2-ol] — 5.3-fold lower, 5.5 nM
